These results are taken from US20110053982A1, “ETHER BENZYLIDENE PIPERIDINE 5-MEMBERED ARYL CARBOXAMIDE COMPOUNDS USEFUL AS FAAH INHIBITORS” (PFIZER INC., priority 2008, published 2011).

Read-outs that look alike come from different tables or passages of the source. Bounds are passed on as bounds.

One assay deals with T1, Human FAAH (Homo sapiens, UniProt O00519).
T1 construct: made in house
T1 sequence (O00519 32-579 limits assumed): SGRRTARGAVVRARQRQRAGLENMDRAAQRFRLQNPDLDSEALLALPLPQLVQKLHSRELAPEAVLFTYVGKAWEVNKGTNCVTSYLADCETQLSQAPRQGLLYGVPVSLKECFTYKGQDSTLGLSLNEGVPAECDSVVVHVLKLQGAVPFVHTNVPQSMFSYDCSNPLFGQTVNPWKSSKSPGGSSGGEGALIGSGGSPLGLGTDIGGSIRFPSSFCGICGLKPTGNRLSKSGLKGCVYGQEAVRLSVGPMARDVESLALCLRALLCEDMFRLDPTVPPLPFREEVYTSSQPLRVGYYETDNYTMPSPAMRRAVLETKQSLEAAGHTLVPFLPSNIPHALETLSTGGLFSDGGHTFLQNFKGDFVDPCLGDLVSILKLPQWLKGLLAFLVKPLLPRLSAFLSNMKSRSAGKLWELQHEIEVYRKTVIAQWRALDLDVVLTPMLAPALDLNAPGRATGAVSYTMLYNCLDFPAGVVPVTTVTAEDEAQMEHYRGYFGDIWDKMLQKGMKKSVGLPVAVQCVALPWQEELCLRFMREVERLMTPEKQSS
Nature of the assay: FAAH assay, kinetic analysis of irreversible inhibition (kinact/Ki). It counts as biochemical. Here is the method:
A FAAH assay may be carried out in 384-well clear polystyrene plates in a total volume of 50 μl per well. All percents are by volume. To each well is placed the reaction mixture (40 μl) containing 1-4 nM FAAH, 50 mM NaPi, pH 7.4, 3 mM α-ketoglutarate, 0.15 mM NADH, 7.5 U/ml glutamate dehydrogenase, 2 mM ADP, 1 mM EDTA, and 0.1% Triton X-100 (The concentration shown for each component is the final concentration in the assay). To this mixture is added 5 μl of a compound of Examples 1 to 20 at various concentrations prepared in 50% DMSO (or 5 μl 50% DMSO for controls). This is immediately followed by the addition of 5 μl oleamide (500 μM) dissolved in […] and the reaction mixture is mixed for 1.5 min. The final concentrations of DMSO and EtOH in the assay are each 7.5%. The reactions is then incubated at 30° C. and the absorbance at 340 nm is collected over a period of 90 min with readings taken in 30-second intervals using SpectraMax Plus^384 Microplate Spectrophotometer (Molecular Devices, Sunnyvale, Calif.). Human FAAH used in the assay is prepared as described in the patent application WO 2006/067613. The purity of the enzyme used is preferably greater than 98% based on an analysis by SDS-polyacrylamide gel electrophoresis followed by Coomassie Blue staining.
Initial velocity data (V) is obtained from the slopes of the initial progressive curves. They are plotted as a function of substrate concentration and fit to the Michaelis-Menten equation (1) using Prism (GraphPad Software, Inc., San Diego, Calif.) software to obtain Km and Vmax values.
To obtain potencies of irreversible inhibitors, progressive curves consistent with first order inhibition kinetics (two-step irreversible inhibition mechanism) are fit to equation (2) by nonlinear least squares regressions to determine kobs values at each inhibitor concentration, where [P]t is the absorbance at time t, V0 is a constant related to the steady state rate of the uninhibited reaction, and kobs is the first order rate constant for enzyme inactivation. The inhibitor dissociation constant (Ki) and the first order rate
constant of enzyme inactivation at infinite inhibitor concentration (kinact) are then obtained by fitting the kobs vs. [I] curves to equation (3).

The target of a further assay is T2, rFAAH (Rattus norvegicus, UniProt P97612).
T2 sequence (P97612 1-579): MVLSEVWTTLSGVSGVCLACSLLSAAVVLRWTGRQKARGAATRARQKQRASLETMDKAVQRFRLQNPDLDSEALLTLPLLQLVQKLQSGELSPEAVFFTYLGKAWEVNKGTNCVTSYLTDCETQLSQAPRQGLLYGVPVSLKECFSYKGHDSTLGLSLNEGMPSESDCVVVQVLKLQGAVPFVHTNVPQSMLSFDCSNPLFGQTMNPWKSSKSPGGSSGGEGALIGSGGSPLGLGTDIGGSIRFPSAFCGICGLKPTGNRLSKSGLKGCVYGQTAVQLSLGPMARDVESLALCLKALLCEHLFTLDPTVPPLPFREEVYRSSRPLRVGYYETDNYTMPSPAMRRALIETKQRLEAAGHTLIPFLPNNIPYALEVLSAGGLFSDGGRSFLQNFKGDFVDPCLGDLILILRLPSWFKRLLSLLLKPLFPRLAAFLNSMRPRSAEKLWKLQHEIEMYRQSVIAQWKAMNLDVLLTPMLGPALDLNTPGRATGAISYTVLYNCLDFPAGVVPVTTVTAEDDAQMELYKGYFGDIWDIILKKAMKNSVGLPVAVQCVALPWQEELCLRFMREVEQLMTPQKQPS
The assay can be described thus: FAAH assay, rFAAH kobs/I. Particulars: additional data table, unit not given. It counts as biochemical.

[1] abbreviates: additional data table, unit inferred, read-out: hFAAH_Kinact/Ki.

With `O=C(Nc1cnoc1)N1CCC(=Cc2cccc(OCC3CCCCO3)c2)CC1` (stereo not shown) [N-isoxazol-4-yl-4-[3-(tetrahydro-2H-pyran-2-ylmethoxy)benzylidene]piperidine-1-carboxamide], the kinact/KI at Human FAAH (setting [1]) was found to be 384 M⁻¹ s⁻¹. Also, at rFAAH, the “FAAH_KINACTR:rFAAH:kobs/I” value was 18.

With `Cc1oncc1NC(=O)N1CCC(=Cc2cccc(OCCc3cccc(F)c3)c2)CC1` [4-{3-[2-(3-fluorophenyl)ethoxy]benzylidene}-N-(5-methylisoxazol-4-yl)piperidine-1-carboxamide], the kinact/KI on Human FAAH (setting [1]) amounted to 11000 M⁻¹ s⁻¹. Also, the “FAAH_KINACTR:rFAAH:kobs/I” value at rFAAH worked out at 59.9.

As for `Cc1noc(NC(=O)N2CCC(=Cc3cccc(OCCCC(F)(F)F)c3)CC2)c1C` [N-(3,4-dimethylisoxazol-5-yl)-4-[3-(4,4,4-trifluorobutoxy)benzylidene]piperidine-1-carboxamide], the kinact/KI on Human FAAH (setting [1]) worked out at 12900 M⁻¹ s⁻¹. The “FAAH_KINACTR:rFAAH:kobs/I” value on rFAAH turned out to be 1540.

Turning to `Cc1cccc(OCCOc2cccc(C=C3CCN(C(=O)Nc4cnoc4C)CC3)c2)c1` [N-(5-methylisoxazol-4-yl)-4-{3-[2-(3-methylphenoxy)ethoxy]benzylidene}piperidine-1-carboxamide], the kinact/KI on Human FAAH (setting [1]) stood at 10600 M⁻¹ s⁻¹. The “FAAH_KINACTR:rFAAH:kobs/I” value at rFAAH turned out to be 57.1.

As to `Cc1noc(NC(=O)N2CCC(=Cc3cccc(OCC4CCC(F)(F)CC4)c3)CC2)c1C` [4-{3-[(4,4-difluorocyclohexyl)methoxy]benzylidene}-N-(3,4-dimethylisoxazol-5-yl)piperidine-1-carboxamide], the kinact/KI on Human FAAH (setting [1]) came to 3970 M⁻¹ s⁻¹. For the same compound, the “FAAH_KINACTR:rFAAH:kobs/I” value on rFAAH is 5360.

Consider `Cc1ncsc1CCOc1cccc(C=C2CCN(C(=O)Nc3onc(C)c3C)CC2)c1` [N-(3,4-dimethylisoxazol-5-yl)-4-{3-[2-(4-methyl-1,3-thiazol-5-yl)ethoxy]benzylidene}piperidine-1-carboxamide], for which the kinact/KI on Human FAAH (setting [1]) was 4920 M⁻¹ s⁻¹. Also, the “FAAH_KINACTR:rFAAH:kobs/I” value on rFAAH is given as 1920.

As for `Cc1oncc1NC(=O)N1CCC(=Cc2cccc(OCC(C)CC(F)(F)F)c2)CC1` (stereo not shown) [N-(5-methylisoxazol-4-yl)-4-[3-(4,4,4-trifluoro-2-methylbutoxy)benzylidene]piperidine-1-carboxamide], the kinact/KI at Human FAAH (setting [1]) is 3200 M⁻¹ s⁻¹. Besides, the “FAAH_KINACTR:rFAAH:kobs/I” value on rFAAH was less than 11.5.

For the compound `Cc1noc(NC(=O)N2CCC(=Cc3cccc(OCCc4cccc(F)c4)c3)CC2)c1C` [N-(3,4-dimethylisoxazol-5-yl)-4-{3-[2-(3-fluorophenyl)ethoxy]benzylidene}piperidine-1-carboxamide], on Human FAAH (setting [1]), the kinact/KI is 12100 M⁻¹ s⁻¹. For the same compound, the “FAAH_KINACTR:rFAAH:kobs/I” value at rFAAH is given as 9280.

For the compound `Cc1oncc1NC(=O)N1CCC(=Cc2cccc(OCCCC(F)(F)F)c2)CC1` [N-(5-methylisoxazol-4-yl)-4-[3-(4,4,4-trifluorobutoxy)benzylidene]piperidine-1-carboxamide], the kinact/KI at Human FAAH (setting [1]) amounted to 7410 M⁻¹ s⁻¹. The “FAAH_KINACTR:rFAAH:kobs/I” value on rFAAH was less than 10.0.

`Cc1ncsc1CCOc1cccc(C=C2CCN(C(=O)Nc3cnoc3)CC2)c1` [N-isoxazol-4-yl-4-{3-[2-(4-methyl-1,3-thiazol-5-yl)ethoxy]benzylidene}piperidine-1-carboxamide]: the kinact/KI at Human FAAH (setting [1]) stood at 514 M⁻¹ s⁻¹. Further, the “FAAH_KINACTR:rFAAH:kobs/I” value at rFAAH was less than 10.0.

`Cc1noc(NC(=O)N2CCC(=Cc3cccc(OCCCc4cnoc4)c3)CC2)c1C` [N-(3,4-dimethylisoxazol-5-yl)-4-[3-(3-isoxazol-4-ylpropoxy)benzylidene]piperidine-1-carboxamide]: at Human FAAH (setting [1]), the kinact/KI is 7170 M⁻¹ s⁻¹. For the same compound, the “FAAH_KINACTR:rFAAH:kobs/I” value at rFAAH is given as 2580.

As to `Cn1nnnc1NC(=O)N1CCC(=Cc2cccc(OCC3CCCCO3)c2)CC1` (stereo not shown) [N-(1-methyl-1H-tetrazol-5-yl)-4-[3-(tetrahydro-2H-pyran-2-ylmethoxy)benzylidene]piperidine-1-carboxamide], the kinact/KI on Human FAAH (setting [1]) is 7490 M⁻¹ s⁻¹. Further, the “FAAH_KINACTR:rFAAH:kobs/I” value on rFAAH is listed as 1610.

`CCCCOc1cccc(C=C2CCN(C(=O)Nc3onc(C)c3C)CC2)c1` [4-(3-butoxybenzylidene)-N-(3,4-dimethylisoxazol-5-yl)piperidine-1-carboxamide]: the kinact/KI at Human FAAH (setting [1]) came to 14800 M⁻¹ s⁻¹. For the same compound, the “FAAH_KINACTR:rFAAH:kobs/I” value at rFAAH amounted to 2820.

Consider `Cc1oncc1NC(=O)N1CCC(=Cc2cccc(OC3CCC(C)(C)CC3)c2)CC1` [4-{3-[(4,4-dimethylcyclohexyl)oxy]benzylidene}-N-(5-methylisoxazol-4-yl)piperidine-1-carboxamide], for which, on Human FAAH (setting [1]), the kinact/KI is 2860 M⁻¹ s⁻¹. Further, the “FAAH_KINACTR:rFAAH:kobs/I” value at rFAAH turned out to be 160.

For the compound `Cc1oncc1NC(=O)N1CCC(=Cc2cccc(OCCOC(C)C)c2)CC1` [4-[3-(2-isopropoxyethoxy)benzylidene]-N-(5-methylisoxazol-4-yl)piperidine-1-carboxamide], the kinact/KI at Human FAAH (setting [1]) turned out to be 2670 M⁻¹ s⁻¹. Besides, the “FAAH_KINACTR:rFAAH:kobs/I” value on rFAAH is reported as less than 12.6.

Regarding `Cc1noc(NC(=O)N2CCC(=Cc3cccc(OCC4CCCCO4)c3)CC2)c1C` (stereo not shown) [Example 1, N-(3,4-dimethylisoxazol-5-yl)-4-[3-(tetrahydro-2H-pyran-2-ylmethoxy)benzylidene]piperidine-1-carboxamide], the kinact/KI on Human FAAH (oleamide substrate, 30° C., pH 7.4, read-out: hFAAH KInact/KI) came out at 5450 M⁻¹ s⁻¹.

As to `CCCCOc1cccc(C=C2CCN(C(=O)Nc3cnoc3C)CC2)c1` [4-(3-butoxybenzylidene)-N-(5-methylisoxazol-4-yl)piperidine-1-carboxamide], the kinact/KI on Human FAAH (setting [1]) worked out at 2120 M⁻¹ s⁻¹. The “FAAH_KINACTR:rFAAH:kobs/I” value on rFAAH was 12.9.

`Cc1noc(NC(=O)N2CCC(=Cc3cccc(OCCC(C)C)c3)CC2)c1C` [N-(3,4-dimethylisoxazol-5-yl)-4-[3-(3-methylbutoxy)benzylidene]piperidine-1-carboxamide]: on Human FAAH (setting [1]), the kinact/KI is 7710 M⁻¹ s⁻¹. Besides, the “FAAH_KINACTR:rFAAH:kobs/I” value at rFAAH is recorded as 2590.

Regarding `Cc1oncc1NC(=O)N1CCC(=Cc2cccc(OCCc3ccc(F)cc3)c2)CC1` [4-{3-[2-(4-fluorophenyl)ethoxy]benzylidene}-N-(5-methylisoxazol-4-yl)piperidine-1-carboxamide], the kinact/KI at Human FAAH (setting [1]) stood at 1480 M⁻¹ s⁻¹. For the same compound, the “FAAH_KINACTR:rFAAH:kobs/I” value on rFAAH is 52.7.

Regarding `Cc1noc(NC(=O)N2CCC(=Cc3cccc(OCC(C)CC(F)(F)F)c3)CC2)c1C` (stereo not shown) [N-(3,4-dimethylisoxazol-5-yl)-4-[3-(4,4,4-trifluoro-2-methylbutoxy)benzylidene]piperidine-1-carboxamide], the kinact/KI at Human FAAH (setting [1]) came out at 5190 M⁻¹ s⁻¹. Also, the “FAAH_KINACTR:rFAAH:kobs/I” value on rFAAH was found to be 2530.

`Cc1noc(NC(=O)N2CCC(=Cc3cccc(OCCOC(C)C)c3)CC2)c1C` [N-(3,4-dimethylisoxazol-5-yl)-4-[3-(2-isopropoxyethoxy)benzylidene]piperidine-1-carboxamide]: at Human FAAH (setting [1]), the kinact/KI was 12700 M⁻¹ s⁻¹. Also, the “FAAH_KINACTR:rFAAH:kobs/I” value on rFAAH was 4760.

For the compound `Cc1oncc1NC(=O)N1CCC(=Cc2cccc(OCC3CCCC3)c2)CC1` [4-[3-(cyclopentylmethoxy)benzylidene]-N-(5-methylisoxazol-4-yl)piperidine-1-carboxamide], the kinact/KI at Human FAAH (setting [1]) was 838 M⁻¹ s⁻¹. In addition, the “FAAH_KINACTR:rFAAH:kobs/I” value on rFAAH is listed as less than 10.0.
